Source: patent EP0863214A2, “Reporter gene construct for measuring G protein coupled receptor activation” (SMITHKLINE BEECHAM CORPORATION, priority 1997, dated 1998)
Ends that are not written are not given here.

Test system: HEK 293 cells transfected with MREII VIPII
Format: cell-based, Human
Settings: wild-type HEK 293 cells or HEK 293 cells expressing the porcine CGRP receptor; endogenous receptors or direct activation of adenylyl cyclase; in the presence of IBMX
Procedure: Day 1: HEK293 cells at a density of 4.5x10^6/T-75 flask in Earl's Minimum Essential Medium (EMEM) supplemented with 10% fetal bovine serum and 2 mM glutamine were incubated overnight in a humidified tissue culture incubator at 37°C, 5% CO2.
Day 2: MREII VIPII DNA (7.8 µg) was mixed with 780 µl of serum free EMEM to produce Solution A. Lipofectamine (23.1 µl; Gibco-BRL) was mixed with 780 µl of serum EMEM to produce Solution B. Solutions A and B were then mixed gently and incubate at room temperature for 15-45 minutes. Cells were then rinsed with 15 ml of serum free EMEM and 6.25 ml of serum free EMEM was added. Combined solutions (A + B) were overlayed and the flask was placed in a tissue culture incubator for 5 hours. Media was replaced with 15 ml of EMEM/10% serum/ 2 mM glutamine and stored in the tissue culture incubator.
Day 3: Ninety-six well tissue culture plates were treated with Matrigel (50 µl/well diluted 1/50 with phosphate buffered saline (PBS); Collaborative Biomedical Products) for > 1 hour. Matrigel solution was then removed and the plate was transfected with HEK 293 cells at a cell density of 2.6 x 10^4/well in 100 µl of supplemented EMEM. […] Cells were then incubated for 6 hours in a humidified tissue culture incubator at 37°C, 5% CO2. Media was removed and cells were washed with 50 µl of PBS.
Cell lysis solution (50 µl; Promega) supplemented with AEBSF (0.24 mg/ml), pepstatin, leupeptin, and aprotinin (5µg/ml each), and DNAse I (50 µg/ml) was added and extracts were frozen. Ten microliters of thawed extract were added to assay plates along with 50 µl of reconstituted luciferase assay reagent (Promega) using a luminometer autoinjector (Dynex MLX) and samples were read. Luciferase activity is expressed as a fold enhancement over the basal luciferase activity expressed in cells that have not been challenged with agonist, IBMX, TPA, or forskolin.

Molecule | Luciferase stimulation
Nc1ncnc2c1ncn2[C@@H]1O[C@H](COP(=O)(O)OP(=O)(O)OP(=O)(O)O)[C@@H](O)[C@H]1O [ATP] | did not stimulate luciferase induction
CCCCC[C@H](O)/C=C/[C@H]1[C@H](O)CC(=O)[C@@H]1C/C=C\CCCC(=O)O [PGE2] | Luciferase stimulation was observed
Nc1ncnc2c1ncn2[C@@H]1O[C@H](CO)[C@@H](O)[C@H]1O [adenosine] | did not stimulate luciferase induction
C[N+](C)(C)CCOC(N)=O [carbachol] | did not stimulate luciferase induction
VIP (HSDAVFTDNYTRLRKQMAVKKYLNSILN; not fully specified (C-terminus); ends and bridges not checked; UniProt P01282 125-152, looked up) | Luciferase stimulation was observed
calcitonin (CGNLSTCMLGTYTQDFNKFHTFPQTAIGVGAP; not fully specified (C-terminus, bridges); ends and bridges not checked; UniProt P01258 85-116, looked up) | Luciferase stimulation was observed
endothelin (CSCSSLMDKECVYFCHLDIIW; not fully specified (bridges); ends and bridges not checked; UniProt P05305 53-73, looked up) | did not stimulate luciferase induction
